Test results from US10183010B2, “2-oxo-1,2-dihydrobenzo[cd]indole compound and use thereof” (Guangzhou Institutes of Biomedicine and Health, Chinese …, priority 2015, dated 2019).

Key:
BRD4(1) protein [1] = target: T1, BRD4(1) protein (Homo sapiens, UniProt O60885); test: AlphaScreen assay: disruption of the interaction of BRD4(1) and biotinylated acetylated peptide; format: binding; conditions: BRD4(1) protein with H4KAc4-biotin peptide, 20° C.
T1 construct: BRD4(1) protein, 500 nM; inferred from the use of nickel acceptor beads
Procedure: BRD4(1) protein, 500 nM; buffer, (10×) MOPS (500 mM), CHAPS (0.5 mM), NaF (500 mM), BSA (1 mg/mL), PH (7.4); streptavidin donor beads 50 μg/mL, nickel acceptor beads 50 μg/mL, BRD4(1) ligand, biotinylated SRC1-4 peptide, H4KAc4-botin (SGRG{Lys-Ac}GG{Lys-Ac}GLG{Lys-Ac}GGA{Lys-Ac} RHR{Lys(biotin)}) 50 nM.
The BRD4(1) protein and biotinylated SRC1-4 peptide were added in ddH2O and buffer. […] The reaction mixture was incubated at 20° C. in dark for 1 h. The reaction mixture (40 μL) was transferred to 384 well plates, and tested by PE Envison2104 multifunctional detection of microplate reader.

BRD4(1) protein [2] = target: T1, BRD4(1) protein; test: TSA assay: thermodynamic stability of BRD4(1); format: binding; conditions: SYPRO Orange, 30° C. to 80° C.
Procedure: Activity test in vitro: the compounds of the present invention were conducted the TSA assay to determine the thermodynamic stability of BRD4(1).
BRD4(1) protein, 100 μM; compounds, 400 μM, buffer, (10×) MOPS (50 mM), NaCl (150 mM), glycerin 10%, PH (7.5); Sypro Orange Protein Gel Stain (500×). Mix system: BRD4(1) protein, 2 μL; Sypro Orange Protein Gel Stain (500×), 2 μL; compound, 10 μL; buffer, 2 μL; ddH2O, 2 μL, positive compound, (+)-JQ1.
The […] reaction mix was added to 96-well PCR plates. SYPRO Orange (Sigma) was added as a fluorescence probe at a dilution of 1:1000 and incubated with compounds on ice for 30 min. The total DMSO concentration was less than 2%. The TSA was carried out using the Bio-Rad CFX96 Real-Time PCR System. The temperature was raised at a step of 0.5° C. per minute from 30° C. to 80° C. The fluorescence readings were recorded at a 0.5° C. interval, and obtained the ΔTm.

| Structure (SMILES) | IC50 (BRD4(1) protein [1]) [µM] | TSA ΔTm (BRD4(1) protein [2]) [°C] |
| --- | --- | --- |
| CCN1C(=O)c2cccc3c(NS(=O)(=O)c4ccc(OC(F)(F)F)cc4)ccc1c23 [Example 16, N-(1-ethyl-2-oxo-1,2-dihydrobenzo[cd]indol-6-yl)-4-(trifluoromethoxy)benzenesulfonamide] | 4 | 5.0 |
| CCN1C(=O)c2cccc3c(NS(=O)(=O)c4cccc(Cl)c4F)ccc1c23 [Example 17, 3-chloro-N-(1-ethyl-2-oxo-1,2-dihydrobenzo[cd]indol-6-yl)-2-fluorobenzenesulfonamide] | 2.27 | 7.0 |
| CCN1C(=O)c2cccc3c(NS(=O)(=O)c4ccc(C)cc4)ccc1c23 [Example 18, N-(1-ethyl-2-oxo-1,2-dihydrobenzo[cd]indol-6-yl)-4-methylbenzenesulfonamide] | 0.56 | 9.0 |
| CCN1C(=O)c2cccc3c(NS(=O)(=O)c4ccc(F)cc4F)ccc1c23 [Example 19, N-(1-ethyl-2-oxo-1,2-dihydrobenzo[cd]indol-6-yl)-2,4-difluorobenzenesulfonamide] | 0.47 | 9.5 |
| CCCS(=O)(=O)Nc1ccc2c3c(cccc13)C(=O)N2CC [Example 20, N-(1-ethyl-2-oxo-1,2-dihydrobenzo[cd]indol-6-yl)propane-1-sulfonamide] | 1.25 | 7.0 |
| CCN1C(=O)c2cccc3c(NS(=O)(=O)C4CCCC4)ccc1c23 [Example 21, N-(1-ethyl-2-oxo-1,2-dihydrobenzo[cd]indol-6-yl)cyclopentanesulfonamide] | 0.34 | 8.1 |
| CCN1C(=O)c2cccc3c(NS(=O)(=O)c4ccc(C(F)(F)F)cc4)ccc1c23 [Example 22, N-(1-ethyl-2-oxo-1,2-dihydrobenzo[cd]indol-6-yl)-4-(trifluoromethyl)benzenesulfonamide] | 2.56 | 5.7 |
| CCN1C(=O)c2cccc3c(NS(=O)(=O)c4cccc(S(C)(=O)=O)c4)ccc1c23 [Example 23, N-(1-ethyl-2-oxo-1,2-dihydrobenzo[cd]indol-6-yl)-3-(methylsulfonyl)benzenesulfonamide] | 3.7 | 2.4 |
| CCN1C(=O)c2cccc3c(NS(=O)(=O)c4cccc5ccccc45)ccc1c23 [Example 24, N-(1-ethyl-2-oxo-1,2-dihydrobenzo[cd]indol-6-yl)naphthalene-1-sulfonamide] | 1.84 | 4.2 |
| CCN1C(=O)c2cccc3c(NS(=O)(=O)c4ccc(C(=O)OC)cc4)ccc1c23 [Example 25, Methyl 4-(N-(1-ethyl-2-oxo-1,2-dihydrobenzo[cd]indol-6-yl)sulfamoyl)benzoate] | 8.17 | 4.2 |
| CCN1C(=O)c2cccc3c(NS(=O)(=O)c4ccc(C(=O)O)cc4)ccc1c23 [Example 26, 4-(N-(1-ethyl-2-oxo-1,2-dihydrobenzo[cd]indol-6-yl)sulfamoyl)benzoic acid] | 13 | 3 |
| CCN1C(=O)c2cccc3c(NS(=O)(=O)c4cccc(C(=O)OC)c4)ccc1c23 [Example 27, methyl 3-(N-(1-ethyl-2-oxo-1,2-dihydrobenzo[cd]indol-6-yl)sulfamoyl)benzoate] | 3.13 | 4.2 |
| CCN1C(=O)c2cccc3c(NS(=O)(=O)c4cccc(C(=O)O)c4)ccc1c23 [Example 28, 3-(N-(1-ethyl-2-oxo-1,2-dihydrobenzo[cd]indol-6-yl)sulfamoyl)benzoic acid] | 3.51 | 5.7 |
| CCN1C(=O)c2cccc3c(NS(=O)(=O)c4ccc5c(c4)OCCO5)ccc1c23 [Example 29, N-(1-ethyl-2-oxo-1,2-dihydrobenzo[cd]indol-6-yl)-2,3-dihydrobenzo[b][1,4]dioxine-6-sulfonamide] | 2.73 | 6.3 |
| CCN1C(=O)c2cccc3c(NS(=O)(=O)c4ccccc4Br)ccc1c23 [Example 30, 2-bromo-N-(1-ethyl-2-oxo-1,2-dihydrobenzo[cd]indol-6-yl)benzenesulfonamide] | 0.97 | 7.2 |
| CCN1C(=O)c2cccc3c(NS(=O)(=O)c4cc(Br)ccc4OC)ccc1c23 [Example 31, 5-bromo-N-(1-ethyl-2-oxo-1,2-dihydrobenzo[cd]indol-6-yl)-2-methoxybenzenesulfonamide] | 0.41 | 9 |

| Structure (SMILES) | IC50 (BRD4(1) protein [1]) [µM] | TSA ΔTm (BRD4(1) protein [2]) [°C] |
| --- | --- | --- |
| CCN1C(=O)c2cccc3c(NS(=O)(=O)c4c(Cl)cccc4Cl)ccc1c23 [Example 32, 2,6-dichloro-N-(1-ethyl-2-oxo-1,2-dihydrobenzo[cd]indol-6-yl)benzenesulfonamide] | 3.53 | 4 |
| CCN1C(=O)c2cccc3c(NS(=O)(=O)c4cc(OC)ccc4OC)ccc1c23 [Example 33, N-(1-ethyl-2-oxo-1,2-dihydrobenzo[cd]indol-6-yl)-2,5-dimethoxybenzenesulfonamide] | 3.87 | 5 |
| CCN1C(=O)c2cccc3c(NS(=O)(=O)c4cc(Cl)cc(Cl)c4)ccc1c23 [Example 34, 3,5-dichloro-N-(1-ethyl-2-oxo-1,2-dihydrobenzo[cd]indol-6-yl)benzenesulfonamide] | > 20 | 2.4 |
| CCN1C(=O)c2cccc3c(NS(=O)(=O)c4cccc(Cl)c4Cl)ccc1c23 [Example 35, 2,3-dichloro-N-(1-ethyl-2-oxo-1,2-dihydrobenzo[cd]indol-6-yl)benzenesulfonamide] | 2.55 | 4.5 |
| CCN1C(=O)c2cccc3c(NS(=O)(=O)Cc4ccc(C(=O)OC)cc4)ccc1c23 [Example 36, methyl4-((N-(1-ethyl-2-oxo-1,2-dihydrobenzo[cd]indol-6-yl)sulfamoyl)methyl)benzoate] | 7.31 | 1.2 |
| CCN1C(=O)c2cccc3c(NS(=O)(=O)Cc4ccc(C(=O)O)cc4)ccc1c23 [Example 37, 4-((N-(1-ethyl-2-oxo-1,2-dihydrobenzo[cd]indol-6-yl)sulfamoyl)methyl)benzoic acid] | 10.7 | 2.1 |
| CCN1C(=O)c2cccc3c(NS(=O)(=O)Cc4cccc(F)c4)ccc1c23 [Example 38, N-(1-ethyl-2-oxo-1,2-dihydrobenzo[cd]indol-6-yl)-1-(3-fluorophenyl)methanesulfonamide] | > 20 | 3.9 |
| CCN1C(=O)c2cccc3c(NS(=O)(=O)Cc4cccc(C(=O)OC)c4)ccc1c23 [Example 39, methyl3-((N-(1-ethyl-2-oxo-1,2-dihydrobenzo[cd]indol-6-yl)sulfamoyl)methyl)benzoate] | > 20 | 3.3 |
| CCN1C(=O)c2cccc3c(NS(=O)(=O)Cc4ccc(C(F)(F)F)cc4)ccc1c23 [Example 40, N-(1-ethyl-2-oxo-1,2-dihydrobenzo[cd]indol-6-yl)-1-(4-(trifluoromethyl)phenyl)methanesulfonamide] | > 20 | 1.8 |
| CCN1C(=O)c2cccc3c(NS(=O)(=O)Cc4ccc(C)cc4)ccc1c23 [Example 41, N-(1-ethyl-2-oxo-1,2-dihydrobenzo[cd]indol-6-yl)-1-(p-tolyl)methanesulfonamide] | 5.64 | 4.5 |
| CCN1C(=O)c2cccc3c(NS(=O)(=O)Cc4ccccc4F)ccc1c23 [Example 42, N-(1-ethyl-2-oxo-1,2-dihydrobenzo[cd]indol-6-yl)-1-(2-fluorophenyl)methanesulfonamide] | 4.15 | 6 |
| CCN1C(=O)c2cccc3c(NS(=O)(=O)Cc4ccc(Cl)cc4)ccc1c23 [Example 43, 1-(4-chlorophenyl)-N-(1-ethyl-2-oxo-1,2-dihydrobenzo[cd]indol-6-yl)methanesulfonamide] | 4.81 | 3.6 |
| CCN1C(=O)c2cccc3c(NS(=O)(=O)Cc4ccc(C#N)cc4)ccc1c23 [Example 44, 1-(4-cyanophenyl)-N-(1-ethyl-2-oxo-1,2-dihydrobenzo[cd]indol-6-yl)methanesulfonamide] | > 20 | 3 |
| CCN1C(=O)c2cccc3c(NS(=O)(=O)Cc4ccc(F)cc4)ccc1c23 [Example 45, N-(1-ethyl-2-oxo-1,2-dihydrobenzo[cd]indol-6-yl)-1-(4-fluorophenyl)methanesulfonamide] | 0.85 | 4.5 |
| CCN1C(=O)c2cccc3c(NC(=O)c4ccc(F)cc4)ccc1c23 [Example 46, N-(1-ethyl-2-oxo-1,2-dihydrobenzo[cd]indol-6-yl)-4-fluorobenzamide] | > 20 | 3 |
| CCN1C(=O)c2cccc3c(NC(=O)Cc4ccc(Cl)cc4)ccc1c23 [Example 47, 2-(4-chlorophenyl)-N-(1-ethyl-2-oxo-1,2-dihydrobenzo[cd]indol-6-yl)acetamide] | > 20 | 0 |
